Common to all, as to format: cell-based
The subject of test [1] is Hypocotyl explants of Brassica napus. Nature of the test: Agrobacterium-mediated transformation of oilseed rape hypocotyl explants with pTHW142 using niacinamide before, during or after infection. The protocol:
Hypocotyl explants of Brassica napus were obtained as described in Example 3. Four groups of 200 hypocotyl explants each, were either not treated with niacinamide (indicated in table 4 as NONE), treated with 250 mg/l niacinamide for 1 day prior to infection with Agrobacterium (BEFORE), treated for 2 days during the infection with 250 mg/l niacinamide (DURING), or treated for 1 day after the Agrobacterium infection with 250 mg/l niacinamide (AFTER).
All hypocotyl explants were infected with Agrobacterium tumefaciens strain C58C1Rif carrying T-DNA vector pTHW142 and a helper Ti-plasmid pMP90 (Koncz and Shell, 1986 supra)(or a derivative thereof). Plasmid pTHW142 is a vector carrying a T-DNA comprising the following chimeric genes: • PSSU-bar-3′g7 • p35S-uidA-3′35S • In which uidA is a DNA encoding b-glucuronidase (Jefferson et al., 1986, Proc. Natl. Acad. Sci. USA 83, 8447-8451) and 3′ 35S is the 3′ untranslated end of the cauliflower mosaic virus 35S transcript. The complete sequence of the T-DNA of pTHW142 is presented in SEQ ID No 5.
After the Agrobacterium infection, hypocotyl explants were transferred to selection medium A5, and if appropriate to A5 medium containing 250 mg/ll niacinamide. The hypocotyl explants that were placed on medium containing niacinamide were transferred after 1 day to niacinamide-free selection medium A5. After 5 weeks on selective medium the number of transformed calli was scored. b-glucuronidase expression was verified in the obtained calli using established protocols (Jefferson et al., 1986).

Test [2] shares this test system. Nature of the test: Agrobacterium mediated transformation of oilseed rape hypocotyl explants with pTHW107, niacinamide for 4 days prior to infection. The protocol:
Hypocotyl explants of Brassica napus were obtained, cultured and transformed essentially as described by De Block et al, 1989, Plant Physiol. 914:694-701 except for the following modifications: • hypocotyl explants were precultured for 3 days on A2 medium (MS, 0.5 g/l Mes (pH 5.7), 1.2% glucose, 0.5% agarose, 1 mg/l 2,4-D, 0.25 mg/l naphthalene acetic acid (NAA), 1 mg/l 6-benzylaminopurine (BAP)), and then transferred to the A2 medium with or without niacinamide for another 4 days. • infection medium A3 was MS, 0.5 g/l Mes (pH 5.7), 1.2% glucose, 0.1 mg/l NAA, 0.75 mg/l BAP, 0.01 mg/l giberellinic acid (GA3) • selection medium A5 was 0.5 g/l Mes (pH 5.7), 1.2% glucose, 40 mg/l adenine.SO4, 0.5 g/l polyvinyl-polypyrrolidone (PVP), 0.5% agarose, 0.1 mg/l NAA, 0.75 mg/l BAP, 0.01 mg/l GA3, 250 mg/l carbenicillin, 250 mg/l triacillin, 5 mg/l AgNO3. • regeneration medium A6 was MS, 0.5 g/l Mes (pH 5.7), 2% sucrose, 40 mg/l adenine.SO4, 0.5 g/l PVP, 0.5% agarose, 0.0025 mg/l BAP, 250 mg/l triacillin. • healthy shoots were transferred to 1 liter vessels containing rooting medium which was either A8 or A9; A8 consists of 100-130 ml half concentrated MS, 1% sucrose (pH 5.0), 1 mg/l isobutyric acid (IBA), 100 mg/l triacillin added to 300 ml perlite (final pH 6.2); A9 consists of half concentrated MS, 1.5% sucrose (pH 5.8) solidified with agar (0.6%)
Hypocotyl explants (with or without niacinamide treatment) were infected with Agrobacterium tumefaciens strain C58C1Rif carrying T-DNA vector pTHW107 and a helper Ti-plasmid pMP90 (Koncz and Schell, 1986, Mol.Gen.Genet. 204:383-396)(or a derivative thereof).
Plasmid pTHW107 is a vector carrying a T-DNA comprising the following chimeric genes: • PTA29-barnase-3′g7 • PSSU-bar-3′nos • in which PTA29 is the promoter of the TA29 gene of tobacco (EP 344029) and PSSU is the promoter of the gene of Arabidopsis thaliana encoding the small subunit of Rubisco. The complete sequence of the T-DNA of pTHW107 is presented in SEQ ID No 1.
Where required niacinamide (250 mg/l) was added to the media for the last 4 days prior to infection with Agrobacterium. […] Five plants regenerated from the calli obtained by transformation including niacinamide and five plants regenerated from the calli obtained by conventional transformation without niacinamide inclusion, were analyzed by Southern hybridization to determine the copy number of the transgenes, and were further analyzed for reproductive phenotype.

The next test concerns cultured cells. Nature of the test: Optimal concentration of PARP inhibitor in the culture medium. As to conditions: i.e. about 2 mM; incubation not longer than 14 days. The protocol:
The concentration of the PARP inhibitor in the medium is also believed to have an effect on the inhibition of PARP, which varies depending on the nature of the cells (species, tissue explant, general culture conditions, etc.) However, within certain concentration ranges, the effect is minimal, especially when the cultured cells are not incubated for longer than 14 days. The optimal concentration range of PARP inhibitor in the medium may vary depending on the species from which the tissue, cell or cell culture is derived, but 250 mg/l (about 2 mM) is believed to be a suitable concentration for many purposes (e.g. for use with material derived from wheat). However, when nicotinamide is used in combination with plant material derived from rice, the concentration of nicotinamide should preferably be between 500 mg/l (about 4 mM) and 1000 mg/l (approx. 8 mM). On the other hand, when nicotinamide is used in combination with plant material derived from corn, the concentration of nicotinamide should preferably be 100 mg/l. […] The optimal concentration will depend on the nature of the specific PARP inhibitor used, particularly on its strength of inhibition (as measured by its Ki and/or by its percentage inhibition of PARP under standard conditions—Sims et al, supra). […]

Setting [3] is: 250 mg/l niacinamide for the last 4 days prior to infection.
[4] abbreviates: Before 250, regenerated plants Id. No. 1-5.

The structures appear in SMILES notation.

With `NC(=O)c1cccnc1` [niacinamide], the “Transformation frequency (transformed calli, PPT-resistant and GUS-positive, per 100 hypocotyl explants)” value in test [1] (AFTER: 250 mg/l niacinamide for 1 day after the infection, scored after 5 weeks) stood at 29%; in test [1] (BEFORE: 250 mg/l niacinamide for 1 day prior to infection, scored after 5 weeks on selective medium), 32%; in test [1] (DURING: 250 mg/l niacinamide for 2 days during the infection, scored after 5 weeks), 16%. Moreover, the “Remarks (callus size and appearance)” value in test [1] (BEFORE, large: callus diameter of approximately 5 mm) is recorded as “large, green calli”; in test [1] (DURING, very small: callus diameter of approximately 1-2 mm) it was “very small, light green calli”. Also, the transformation efficiency result in test [1] (niacinamide treatment either before or after the Agrobacterium infection) is listed as “significantly increase”. Besides, in test [2] (setting [3]), the “copy number in plants regenerated from transformed calli” value was “low copy number”. For the same compound, the “variation in the expression profile of the transgenes” value in test [2] (setting [3]) is listed as “less variation”. Also, the “Phenotype of the F1-progeny (vegetative/reproductive)” value in test [2] (Before 250, pollinated with untransformed N90-740, phosphinotricin resistant F1-progeny) is listed as “normal/sterile”. Further, in test [2] (setting [4]), the “Reproductive phenotype (male sterility)” value is reported as “sterile”. For the same compound, the Vegetative phenotype result in test [2] (setting [4]) was “normal”. Moreover, the “optimal concentration in the culture medium” value with cultured cells is given as “approximately 250 mg/l”.

The record behind these values is US20050014268A1, “Genetic transformation using a PARP inhibitor” (Bayer BioScience NV, priority 1995, published 2005).
